The compounds below were run against T1, c-Met (Homo sapiens, UniProt P08581) (assay: c-Met receptor assay (HTRF kinase assay with GST-cMet (P), gastrin and ATP)). Details: illustrative activity values.
T1 construct: A PCR product covering residues 1058-1365 of c-Met (c-Met kinase domain) is generated; made in house; host or cells: baculovirus-infected (insect) cells
Assay type: biochemical
Procedure: Phosphorylation of the purified GST-cMET is performed by incubating the protein for 3 h at RT with the following:
After incubation, the solution is concentrated in a Vivaspin 20 ml Concentrator to a volume less than 2.00 ml. The solution is applied to the same Superdex 75 16/60 column used above after re-equilibration. The GST-cMET is eluted as described above. The elution fractions corresponding to the first eluted peak on the chromatogram are run on a 12% Tris Glycine gel, as above, to identify the fractions with GST-cMET. Fractions are pooled and the OD280 is read with the column buffer used as the blank.
A Kinase reaction Buffer is prepared as follows:
When the assay is carried out, freshly add:
The HTRF buffer contains:
1. Dilute GST-cMet (P) enzyme in kinase buffer as follows:
2. Assay plate preparation:
Then incubate the plate at RT for 30 min.
3. Prepare Gastrin and ATP working solution in kinase reaction buffer as follows:
Use Biomek FX to add 20 μl ATP and Gastrin working solution to the assay plate to start reaction, incubate the plate at RT for 1 h.
KM ATP, KM gastrin for various enzymes were determined by HTRF/^33P labeling and HTRF methods.
Cloning, Expression and Purification of c-Met Kinase Domain
Alternative Purification of Human GST-cMET from Baculovirus Cells
The resin is washed with 10 column volumes (100 mL) of Lysis Buffer. […] The elution is collected as 15 mL fractions. Aliquots of the elution fractions are run on SDS PAGE (12% Tris Glycine gel, Invitrogen, #EC6005BOX). The gel is stained with 0.25% Coomassie Blue stain. Fractions with GST-cMET are concentrated with a Vivaspin 20 mL Concentrator (#VS2002; 10.00 MW cutoff) to a final volume less than 2.0 ml. […] The GST-cMET is eluted with an isocratic run of the above buffer, with the eluent collected in 1.0 mL fractions. Fractions with significant OD280 readings are run on another 12% Tris Glycine gel. The peak tubes with GST-cMET are pooled and the OD280 is read with the column buffer listed above as the blank buffer. […]

T1 sequence (P08581 1058-1365): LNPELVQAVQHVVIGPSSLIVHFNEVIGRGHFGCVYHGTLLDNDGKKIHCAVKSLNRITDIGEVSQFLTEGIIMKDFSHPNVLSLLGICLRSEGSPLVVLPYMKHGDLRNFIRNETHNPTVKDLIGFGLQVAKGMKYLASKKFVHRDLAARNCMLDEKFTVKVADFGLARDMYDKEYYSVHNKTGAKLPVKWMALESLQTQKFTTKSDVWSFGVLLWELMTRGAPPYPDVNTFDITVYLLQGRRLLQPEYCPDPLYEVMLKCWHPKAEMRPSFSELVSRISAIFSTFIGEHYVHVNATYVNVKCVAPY

Row | Structure (SMILES) | Ki [nM]
1 | Cc1cnc(Nc2ccc(Oc3ccnc(NC(=O)N4CCOCC4)c3)c(F)c2)c(C(=O)Nc2ccccc2)c1 [Example 1, N-(4-(2-fluoro-4-(5-methyl-3-(phenylcarbamoyl)pyridin-2-ylamino)phenoxy)pyridin-2-yl)morpholine-4-carboxamide] | 1.7
2 | COc1ccc2c(Oc3ccc(Nc4ncc(-c5ccsc5)cc4C(=O)Nc4ccccc4)cc3F)ccnc2c1 [Example 4, 2-(3-fluoro-4-(7-methoxyquinolin-4-yloxy)phenylamino)-N-phenyl-5-(thiophen-3-yl)nicotinamide] | 4.7
3 | O=C(Nc1ccccc1)c1cccnc1Nc1ccc(Oc2ccnc(NC(=O)N3CCCC3)c2)c(F)c1 [Example 5, 2-(3-fluoro-4-(2-(pyrrolidine-1-carboxamido)pyridin-4-yloxy)phenylamino)-N-phenylnicotinamide] | 0.6
4 | COc1ccccc1NC(=O)c1cccnc1Nc1ccc(Oc2ccnc3cc(OCc4ccccc4)c(OC)cc23)c(F)c1 [Example 10, 2-(4-(7-(benzyloxy)-6-methoxyquinolin-4-yloxy)-3-fluorophenylamino)-N-(2-methoxyphenyl)nicotinamide] | 40.5
5 | COc1cc2c(Oc3ccc(Nc4ncccc4C(=O)NCc4ccccc4)cc3)ccnc2cc1OCCCN1CCOCC1 [Example 15, N-benzyl-2-(4-(6-methoxy-7-(3-morpholinopropoxy)quinolin-4-yloxy)phenylamino)nicotinamide] | 4.8
6 | COc1cc2nccc(Oc3ccc(Nc4ncccc4C(=O)NC(C)c4nccs4)cc3)c2cc1OC (stereo not drawn) [Example 24, 2-(4-(6,7-dimethoxyquinoline-4-yloxy)phenylamino)-N-(1-(thiazol-2-yl)ethyl)nicotinamide] | 136
7 | CNC(=O)c1cccnc1Nc1ccc(Oc2ccnc3cc(OC)c(OC)cc23)cc1 [Example 26, 2-(4-(6,7-dimethoxyquinoline-4-yloxy)phenylamino)-N-methylnicotinamide] | 498
8 | COc1cc2nccc(Oc3ccc(Nc4ncccc4C(=O)NCc4nccs4)cc3)c2cc1OC [Example 27, 2-(4-(6,7-dimethoxyquinoline-4-yloxy)phenylamino)-N-(thiazol-2-ylmethyl)nicotinamide] | 180
9 | COc1cc2nccc(Oc3ccc(Nc4ncccc4C(=O)NCc4ncc[nH]4)cc3)c2cc1OC [Example 28, N-((1H-imidazol-2-yl)methyl)-2-(4-(6,7-dimethoxyquinoline-4-yloxy)phenylamino)nicotinamide] | 576
10 | COc1cc2nccc(Oc3ccc(Nc4ncccc4C(=O)Nc4ncco4)cc3)c2cc1OC [Example 29, 2-(4-(6,7-dimethoxyquinoline-4-yloxy)phenylamino)-N-(oxazol-2-yl)nicotinamide] | 196
11 | CSc1ncc(C(=O)Nc2ccccc2)c(Nc2ccc(Oc3ccnc(NC(=O)N4CCCC4)c3)c(F)c2)n1 [Example 30, 4-(3-fluoro-4-(2-(pyrrolidine-1-carboxamido)pyridin-4-yloxy)phenylamino)-2-(methylthio)-N-phenylpyrimidin-5-carboxamide] | 0.2
12 | COc1ccc2c(Oc3ccc(Nc4nccnc4C(=O)Nc4ccccc4)cc3F)ccnc2c1 [Example 36, 3-(3-fluoro-4-(7-methoxyquinolin-4-yloxy)phenylamino)-N-phenylpyrazine-2-carboxamide] | 29.3

— patent publication US7915287B2, “Substituted heterocycles and methods of use” (Amgen Inc., priority 2006, dated 2011)
